Test results from publication PMC3258152 (Nucleic Acids Research, 2011).

Biological target: T1, CkoPE (Candidatus Korarchaeum cryptofilum, UniProt B1L4V6)
T1 sequence (B1L4V6 1-117): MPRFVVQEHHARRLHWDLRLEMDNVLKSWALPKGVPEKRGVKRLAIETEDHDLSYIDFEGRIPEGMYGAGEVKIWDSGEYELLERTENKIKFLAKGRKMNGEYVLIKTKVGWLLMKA
Experiment: […]'-resection of […]-labelled D22R2 single strand, urea-PAGE
Type: biochemical

O=P(O)(O)O [phosphate]
IC50: ~50 mM
